Assays:
Test in all cases: relative viability (nuclei count vs DMSO), 5 days (fraction); higher = more cells survive
VE-821 + Decitabine = compound: CS(=O)(=O)c1ccc(-c2cnc(N)c(C(=O)Nc3ccccc3)n2)cc1 [VE-821] + Nc1ncn([C@H]2C[C@H](O)[C@@H](CO)O2)c(=O)n1 [Decitabine] (partner 2 µM)
In short: (§1)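 Relative viability is defined as nuclei in treated wells over nuclei in vehicle wells. Duplicate plates were run and medians reported. Lung cancer cell lines in 1536-well plates were dosed by pin tool one day after seeding, with one drug or with a fixed anchor-drug dose plus five library-drug doses (not always all listed) in √10 steps, and nuclei were counted after 5 days.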

VE-821 + Phenformin = compound: CS(=O)(=O)c1ccc(-c2cnc(N)c(C(=O)Nc3ccccc3)n2)cc1 [VE-821] + N=C(N)NC(=N)NCCc1ccccc1 [Phenformin] (partner 250 µM)
In short: as §1

Ruxolitinib + Lapatinib = compound: N#CC[C@H](C1CCCC1)n1cc(-c2ncnc3[nH]ccc23)cn1 [Ruxolitinib] + CS(=O)(=O)CCNCc1ccc(-c2ccc3ncnc(Nc4ccc(OCc5cccc(F)c5)c(Cl)c4)c3c2)o1 [Lapatinib] (partner 2 µM)
In short: as §1

Vismodegib + Alpelisib = compound: CS(=O)(=O)c1ccc(C(=O)Nc2ccc(Cl)c(-c3ccccn3)c2)c(Cl)c1 [Vismodegib] + Cc1nc(NC(=O)N2CCC[C@H]2C(N)=O)sc1-c1ccnc(C(C)(C)C(F)(F)F)c1 [Alpelisib] (partner 2 µM)
In short: as §1

| Cell Line | relative viability (VE-821 + Decitabine; first compound 0.08 µM) | relative viability (VE-821 + Decitabine; first compound 0.253 µM) | relative viability (VE-821 + Decitabine; first compound 0.8 µM) | relative viability (VE-821 + Decitabine; first compound 2.53 µM) | relative viability (VE-821 + Decitabine; first compound 8 µM) | relative viability (VE-821 + Phenformin; first compound 0.08 µM) | relative viability (VE-821 + Phenformin; first compound 0.253 µM) | relative viability (VE-821 + Phenformin; first compound 0.8 µM) | relative viability (VE-821 + Phenformin; first compound 2.53 µM) | relative viability (VE-821 + Phenformin; first compound 8 µM) | relative viability (Ruxolitinib + Lapatinib; first compound 0.08 µM) | relative viability (Ruxolitinib + Lapatinib; first compound 0.253 µM) | relative viability (Ruxolitinib + Lapatinib; first compound 0.8 µM) | relative viability (Ruxolitinib + Lapatinib; first compound 2.53 µM) | relative viability (Ruxolitinib + Lapatinib; first compound 8 µM) | relative viability (Vismodegib + Alpelisib; first compound 0.08 µM) | relative viability (Vismodegib + Alpelisib; first compound 0.253 µM) | relative viability (Vismodegib + Alpelisib; first compound 0.8 µM) | relative viability (Vismodegib + Alpelisib; first compound 2.53 µM) | relative viability (Vismodegib + Alpelisib; first compound 8 µM) |
| --- | --- | --- | --- | --- | --- | --- | --- | --- | --- | --- | --- | --- | --- | --- | --- | --- | --- | --- | --- | --- |
| NCI-H23 | 0.304 | 0.35 | 0.289 | 0.36 | 0.245 | 0.812 | 0.743 | 0.785 | 0.844 | 0.479 | 1.03 | 1.27 | 1.2 | 0.775 | 0.852 | 0.801 | 0.588 | 0.672 | 0.652 | 0.853 |
| EMC-BAC-2 | 1.07 | 0.961 | 0.996 | 0.969 | 0.826 | 0.569 | 0.475 | 0.577 | 0.528 | 0.463 | 0.945 | 0.786 | 0.974 | 0.901 | 0.713 | 0.716 | 0.763 | 0.819 | 0.732 | 0.754 |
| NCI-H2009 | 0.381 | 0.413 | 0.425 | 0.413 | 0.398 | 0.507 | 0.471 | 0.498 | 0.461 | 0.36 | 1.05 | 0.997 | 1.09 | 0.737 | 0.633 | 1.12 | 1.14 | 1.19 | 1.11 | 1.22 |
| NCI-H460 | 0.554 | 0.543 | 0.366 | 0.276 | 0.0965 | 0.574 | 0.482 | 0.398 | 0.205 | 0.0832 | 0.95 | 1.06 | 1.21 | 0.759 | 1.08 | 0.542 | 0.495 | 0.552 | 0.434 | 0.435 |
| ABC-1 | 1.13 | 0.974 | 0.809 | 0.903 | 0.989 | 0.308 | 0.26 | 0.203 | 0.244 | 0.211 | 1.19 | 1.19 | 1.4 | 1.11 | 1.17 | 0.994 | 1.13 | 1.08 | 0.83 | 0.949 |
| 201T | 0.887 | 0.878 | 0.887 | 0.918 | 0.659 | 0.476 | 0.415 | 0.468 | 0.431 | 0.364 | 1.1 | 1.14 | 1.11 | 1.28 | 1.26 | 1.03 | 0.996 | 0.994 | 1.07 | 0.984 |
| NCI-H1993 | 0.607 | 0.557 | 0.596 | 0.568 | 0.486 | 0.457 | 0.439 | 0.527 | 0.482 | 0.524 | 0.821 | 0.696 | 0.977 | 0.863 | 0.78 | 0.684 | 0.655 | 0.713 | 0.687 | 0.629 |
| RERF-LC-KJ | 0.731 | 0.681 | 0.633 | 0.725 | 0.609 | 0.397 | 0.361 | 0.377 | 0.407 | 0.41 | 0.926 | 0.859 | 0.898 | 0.909 | 0.855 | 0.789 | 0.748 | 0.909 | 0.748 | 0.773 |
| NCI-H1755 | 0.734 | 0.754 | 0.866 | 0.867 | 0.831 | 0.632 | 0.601 | 0.546 | 0.615 | 0.527 | 1.05 | 1.02 | 1.04 | 0.977 | 0.722 | 0.921 | 0.912 | 0.957 | 0.868 | 0.942 |
| NCI-H1666 | 0.698 | 0.702 | 0.786 | 0.753 | 0.688 | 0.578 | 0.536 | 0.602 | 0.6 | 0.535 | 0.584 | 0.629 | 0.738 | 0.844 | 0.656 | 0.913 | 0.879 | 0.813 | 1.01 | 1.13 |
| NCI-H2085 | 0.539 | 0.528 | 0.778 |  | 0.538 | 0.762 | 0.674 | 0.558 | 0.869 | 0.481 | 0.853 | 0.67 | 1 | 0.725 | 0.806 | 0.899 | 0.841 | 0.992 | 0.931 | 0.962 |
| BEN | 0.699 | 0.679 | 0.687 | 0.768 | 0.644 | 0.284 | 0.281 | 0.283 | 0.257 | 0.249 | 0.798 | 0.76 | 0.766 | 0.767 | 0.777 | 1.03 | 0.988 | 0.863 | 0.984 | 1.02 |
| NCI-H661 | 0.61 | 0.568 | 0.648 | 0.628 | 0.602 | 0.282 | 0.255 | 0.272 | 0.286 | 0.311 | 0.518 | 0.564 | 0.614 | 0.452 | 0.606 | 0.263 | 0.701 | 0.71 | 0.595 | 0.84 |
| NCI-H1395 | 0.733 | 0.672 | 0.74 | 0.74 | 0.638 | 0.43 | 0.415 | 0.449 | 0.467 | 0.41 |  | 0.879 | 1.16 | 0.777 | 0.944 | 0.997 | 0.966 | 0.961 | 0.944 | 1.14 |
| LCLC-97TM1 | 0.266 | 0.278 | 0.239 | 0.251 | 0.178 | 0.413 | 0.454 | 0.426 | 0.457 | 0.435 | 0.877 | 0.833 | 0.852 | 0.83 | 1.21 |  |  | 0.287 |  | 0.287 |
| HCC-827 | 0.347 | 0.344 | 0.357 | 0.352 | 0.357 | 0.425 | 0.398 | 0.391 | 0.458 | 0.335 |  | 0.196 | 0.172 | 0.212 | 0.225 | 0.982 | 0.993 | 0.972 | 0.998 | 0.949 |
| NCI-H596 | 1.08 | 1.08 | 1.04 | 1.12 | 1.09 | 0.78 | 0.635 | 0.735 | 0.871 | 0.631 | 1.18 | 1.07 | 1.22 | 1.03 | 1.07 | 0.438 | 0.448 | 0.51 | 0.472 | 0.545 |
